Laboratory results as given in patent US10793542B2, “Hetroarylamine compounds for modulating the hedgehog pathway and preparing method and uses thereof” (DEVELOPMENT CENTER FOR BIOTECHNOLOGY, priority 2016, dated 2020).

Legend:
Format in all cases: cell-based
[1] = target: T1, Smo wild type (Homo sapiens, UniProt Q99835); assay: Reporter assay of C3H10T1/2-Gli-Luc cells transfected with wild-type Smo, without SAG; details: C3H10T1/2 cells transfected with pLPCX-SMO, no SAG, 48 hr; read-out: Inhibition of C3H10T1/2-Gli-Luc-Smo-WT [IC50
T1 construct: expressed in transfected cells; host or cells: C3H10T1/2 cells (ATCC CCL-226), transient transfection with pLPCX-SMO
T1 sequence (Q99835 28-787): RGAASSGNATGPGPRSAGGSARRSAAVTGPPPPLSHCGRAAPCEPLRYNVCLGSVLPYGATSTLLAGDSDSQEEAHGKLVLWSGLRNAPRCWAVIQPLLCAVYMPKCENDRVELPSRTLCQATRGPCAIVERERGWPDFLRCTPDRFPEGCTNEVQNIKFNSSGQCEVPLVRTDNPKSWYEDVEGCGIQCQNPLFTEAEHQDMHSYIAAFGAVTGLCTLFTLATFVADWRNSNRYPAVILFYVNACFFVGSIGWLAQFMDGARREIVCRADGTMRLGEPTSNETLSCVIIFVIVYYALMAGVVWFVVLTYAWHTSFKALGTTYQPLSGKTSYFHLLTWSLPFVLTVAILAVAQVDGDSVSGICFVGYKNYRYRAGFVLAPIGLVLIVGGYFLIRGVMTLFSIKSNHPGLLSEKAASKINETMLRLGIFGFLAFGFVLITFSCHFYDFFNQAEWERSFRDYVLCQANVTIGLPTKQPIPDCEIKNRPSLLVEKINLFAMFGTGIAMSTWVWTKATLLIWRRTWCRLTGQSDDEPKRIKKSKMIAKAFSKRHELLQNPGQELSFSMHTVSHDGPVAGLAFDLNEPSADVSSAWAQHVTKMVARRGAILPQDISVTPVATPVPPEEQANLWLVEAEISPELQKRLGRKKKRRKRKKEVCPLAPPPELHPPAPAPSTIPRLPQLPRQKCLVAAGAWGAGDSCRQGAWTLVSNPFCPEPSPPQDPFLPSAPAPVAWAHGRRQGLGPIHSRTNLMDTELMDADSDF
Procedure: (§1) A transient transfection system with a Smo wild type or a Smo D473H mutant was also used for compound screening. For the SMO inhibition experiments, cells were transfected with an additional 500 ng/well of wild-type or D473H-mutant type SMO construct (pLPCX-SMO or pLPCX-SMO-D473H). After 24 h, transfected cells were collected by trypsin treatment and re-plated in 96-well plates in an RPMI medium containing 0.5% FBS with a density of 1.5×10^4 cells/well. Compounds were dissolved in DMSO with serial dilutions and were then added to the assay plate. The assay plates were incubated at 37° C. for 48 hr.
(§2) Firefly luciferase and Renilla luciferase activity was determined using the Dual-Glo Luciferase reporter assay system (Promega) with a Victor3 plate reader (PerkinElmer Life Sciences). Firefly luciferase readings were normalized to Renilla luciferase to correct for transfection efficiency. Luminance reading for the C3H10T1/2-Gli-Luc assay was normalized based on DMSO control with SAG stimulation (100% pathway activity) and without SAG stimulation (0% pathway activity). IC50 values, defined as the inflection point of the logistic curve, were determined by nonlinear regression using the Prism 5 software (GraphPad).
(§3) The reporter assay of C3H10T1/2-Gli-Luc cells transfected with a wild-type, D473H mutant Smo mutant was carried out with the same protocol but without SAG stimulation. Luminance reading for the SMO inhibition experiments assay was normalized based on DMSO control (100% of the pathway activity) and a known Smo antagonist (ALLO-2 at 10 μM, 0% of the pathway activity).

[2] = test system: hedgehog pathway (pGL3-7xGli-Luciferase reporter in C3H10T1/2 cells); assay: Transient transfection of C3H10T1/2 and Gli-Luc reporter assay with SAG stimulation; details: Mus musculus, C3H 10T1/2, SAG 20 nM, 48 hr, read-out: Inhibition of Gli-Luc expression [IC50
Procedure: A cell-based screen for inhibitors of the hedgehog pathway was performed using a transient transfection system in C3H10T1/2 cells with pGL3-7xGli-Luciferase reporter plasmids C3H10T1/2 cells (ATCC, cat.#CCL-226) were seeded into 6-well plates at 8×10^4 cells/well in a BME medium containing 10% heat-inactivated FBS. Cells were transfected the next morning with 500 ng/well pGL3-7xGli-Luciferase reporter plasmids and 100 ng/well pRL-TK Renilla luciferase reporter plasmids (Promega)using GeneJuice transfection reagent (Novagene). After 24 h, transfected cells were collected by trypsin treatment and re-plated in 96-well plates in an RPMI medium containing 0.5% FBS with a density of 1.5×10^4 cells/well. Compounds were dissolved in DMSO with serial dilutions and were then added to the assay plate. SAG (Hh-Ag 1.3) (Santa Cruz) was added to the assay plated for a final concentration 20 nM. The assay plates were incubated at 37° C. for 48 hr.
as §2

[3] = target: T2, Smo D473H mutant (Homo sapiens, UniProt Q99835, D473H); assay: Reporter assay of C3H10T1/2-Gli-Luc cells transfected with Smo D473H mutant, without SAG; details: C3H10T1/2 cells transfected with pLPCX-SMO-D473H, no SAG, 48 hr; read-out: Inhibition of C3H10T1/2-Gli-Luc-Smo-D473H [IC50
T2 construct: expressed in transfected cells; host or cells: C3H10T1/2 cells (ATCC CCL-226), transient transfection with pLPCX-SMO-D473H
T2 sequence (Q99835 28-787 D473H): as the sequence (Q99835 28-787) above, with D446H counted along it
Procedure: as §1, §2, §3

IC50 [1] [nM]	IC50 [2] [nM]	IC50 [3] [nM]	SMILES
< 100	< 100	< 100	CSc1cnc(Nc2ccc(C(=O)Nc3cc(CN4CCOCC4)ccc3C)cc2)nc1-c1ccc(OC(F)(F)F)cc1 [Compound 24, N-(2-Methyl-5-morpholin-4-ylmethyl-phenyl)-4-[5-methylsulfanyl-4-(4-trifluoromethoxy-phenyl)-pyrimidin-2-ylamino]-benzamide]
100 to 1000	100 to 1000	100 to 1000	COc1cccc(C)c1NC(=O)c1ccc(Nc2ncc(SC)c(-c3ccc(OC(F)(F)F)cc3)n2)cc1 [Compound 25, N-(2-Methoxy-6-methyl-phenyl)-4-[5-methylsulfanyl-4-(4-trifluoromethoxy-phenyl)-pyrimidin-2-ylamino]-benzamide]
< 100	< 100	100 to 1000	CSc1cnc(Nc2ccc(C(=O)Nc3cc(CN4CCOCC4)ccc3C)cc2)nc1-c1ccncc1 [Compound 26, N-(2-Methyl-5-morpholin-4-ylmethyl-phenyl)-4-(5-methylsulfanyl-4-pyridin-4-yl-pyrimidin-2-ylamino)-benzamide]
< 100	< 100	100 to 1000	CSc1cnc(Nc2ccc(C(=O)Nc3cc(CN4CCOCC4)ccc3C)cc2)nc1-c1ccc(C(F)(F)F)cc1 [Compound 27, N-(2-Methyl-5-morpholin-4-ylmethyl-phenyl)-4-[5-methylsulfanyl-4-(4-tiifluoromethyl-phenyl)-pyrimidin-2-ylamino]-benzamide]
100 to 1000	< 100	100 to 1000	CSc1cnc(Nc2ccc(C(=O)Nc3cc(CN4CCCCC4)ccc3C)cc2)nc1-c1ccc(C(F)(F)F)cc1 [Compound 28, N-(2-Methyl-5-piperidin-1-ylmethyl-phenyl)-4-[5-methylsulfanyl-4-(4-trifluoromethyl-phenyl)-pyrimidin-2-ylamino]-benzamide]
100 to 1000	100 to 1000	100 to 1000	CSc1cnc(Nc2ccc(C(=O)Nc3c(C)cccc3C)cc2)nc1-c1ccc(F)cc1 [Compound 29, N-(2,6-Dimethyl-phenyl)-4-[4-(4-fluoro-phenyl)-5-methylsulfanyl-pyrimidin-2-ylamino]-benzamide]
< 100	< 100	100 to 1000	CSc1cnc(Nc2ccc(C(=O)Nc3cc(CN4CCOCC4)ccc3C)cc2)nc1-c1ccc(F)cc1 [Compound 30, 4-[4-(4-Fluoro-phenyl)-5-methylsulfanyl-pyrimidin-2-ylamino]-N-(2-methyl-5-morpholin-4-ylmethyl-phenyl)-benzamide]
< 100	< 100	100 to 1000	CSc1cnc(Nc2ccc(C(=O)Nc3cc(CN(C)C)ccc3C)cc2)nc1-c1ccc(F)cc1 [Compound 31, N-(5-Dimethylaminomethyl-2-methyl-phenyl)-4-[4-(4-fluoro-phenyl)-5-methylsulfanyl-pyrimidin-2-ylamino]-benzamide]
100 to 1000	100 to 1000	100 to 1000	CSc1cnc(Nc2ccc(C(=O)Nc3cc(CN(C)C)ccc3C)cc2)nc1-c1ccc(C(F)(F)F)cc1 [Compound 32, N-(5-Dimethylaminomethyl-2-methyl-phenyl)-4-[5-methylsulfanyl-4-(4-trifluoromethyl-phenyl)-pyrimidin-2-ylamino]-benzamide]
< 100	< 100	100 to 1000	CSc1cnc(Nc2ccc(C(=O)Nc3cc(CN4CCOCC4)ccc3C)cc2)nc1-c1ccc(C#N)cc1 [Compound 33, 4-[4-(4-Cyano-phenyl)-5-methylsulfanyl-pyrimidin-2-ylamino]-N-(2-methyl-5-morpholin-4-ylmethyl-phenyl)-benzamide]
100 to 1000	< 100	100 to 1000	CSc1cnc(Nc2ccc(C(=O)Nc3cc(CN(C)C)ccc3C)cc2)nc1-c1ccc(C#N)cc1 [Compound 34, 4-[4-(4-Cyano-phenyl)-5-methylsulfanyl-pyrimidin-2-ylamino]-N-(5-dimethylaminomethyl-2-methyl-phenyl)-benzamide]
< 100	< 100	100 to 1000	CSc1cnc(Nc2ccc(C(=O)Nc3cc(CN4CCN(C)CC4)ccc3C)cc2)nc1-c1ccc(C#N)cc1 [Compound 35, 4-[4-(4-Cyano-phenyl)-5-methylsulfanyl-pyrimidin-2-ylamino]-N-[2-methyl-5-(4-methyl-piperazin-1-ylmethyl)-phenyl]-benzamide]
< 100	< 100	100 to 1000	CSc1cnc(Nc2ccc(C(=O)Nc3cc(CN4CCN(C)CC4)ccc3C)cc2)nc1-c1ccc(F)cc1 [Compound 36, 4-[4-(4-Fluoro-phenyl)-5-methylsulfanyl-pyrimidin-2-ylamino]-N-[2-methyl-5-(4-methyl-piperazin-1-ylmethyl)-phenyl]-benzamide]
< 100	< 100	100 to 1000	CSc1cnc(Nc2ccc(C(=O)Nc3cc(CN4CCN(C)CC4)ccc3C)cc2)nc1-c1ccc(OC(F)(F)F)cc1 [Compound 37, N-[2-Methyl-5-(4-methyl-piperazin-1-ylmethyl)-phenyl]-4-[5-methylsulfanyl-4-(4-trifluoromethoxy-phenyl)-pyrimidin-2-ylamino]-benzamide]
< 100	< 100	< 100	COc1cnc(Nc2ccc(C(=O)Nc3cc(CN4CCOCC4)ccc3C)cc2)nc1-c1ccc(OC(F)(F)F)cc1 [Compound 38, 4-[5-Methoxy-4-(4-trifluoromethoxy-phenyl)-pyrimidin-2-ylamino]-N-(2-methyl-5-morpholin-4-ylmethyl-phenyl)-benzamide]
100 to 1000	100 to 1000	100 to 1000	CSc1cnc(Nc2ccc(C(=O)Nc3cc(CN4CCOCC4)ccc3C)cc2)nc1-c1cnn(C)c1 [Compound 39, N-(2-Methyl-5-morpholin-4-ylmethyl-phenyl)-4-[4-(1-methyl-1H-pyrazol-4-yl)-5-methylsulfanyl-pyrimidin-2-ylamino]-benzamide]
< 100	< 100	< 100	CSc1cnc(Nc2ccc(C(=O)Nc3cc(CN4CCOCC4)ccc3C)cc2F)nc1-c1ccc(OC(F)(F)F)cc1 [Compound 40, 3-Fluoro-N-(2-methyl-5-morpholin-4-ylmethyl-phenyl)-4-[5-methylsulfanyl-4-(4-trifluoromethoxy-phenyl)-pyrimidin-2-ylamino]-benzamide]
< 100	< 100	100 to 1000	CSc1cnc(Nc2ccc(C(=O)Nc3cc(CN4CCOCC4)ccc3C)cc2F)nc1-c1ccc(F)cc1 [Compound 41, 3-Fluoro-4-[4-(4-fluoro-phenyl)-5-methylsulfanyl-pyrimidin-2-ylamino]-N-(2-methyl-5-morpholin-4-ylmethyl-phenyl)-benzamide]
< 100	< 100	100 to 1000	CSc1cnc(Nc2ccc(C(=O)Nc3cc(CN4CCCCC4)ccc3C)cc2F)nc1-c1ccc(F)cc1 [Compound 42, 3-Fluoro-4-[4-(4-fluoro-phenyl)-5-methylsulfanyl-pyrimidin-2-ylamino]-N-(2-methyl-5-piperidin-1-ylmethyl-phenyl)-benzamide]
< 100	< 100	100 to 1000	CSc1cnc(Nc2ccc(C(=O)Nc3cccc(CN4CCOCC4)c3)cc2)nc1-c1ccc(F)cc1 [Compound 43, 4-[4-(4-Fluoro-phenyl)-5-methylsulfanyl-pyrimidin-2-ylamino]-N-(3-morpholin-4-ylmethyl-phenyl)-benzamide]
< 100	< 100	< 100	CSc1cnc(Nc2ccc(C(=O)Nc3cccc(CN4CCOCC4)c3)cc2F)nc1-c1ccc(OC(F)(F)F)cc1 [Compound 44, 3-Fluoro-4-[5-methylsulfanyl-4-(4-trifluoromethoxy-phenyl)-pyrimidin-2-ylamino]-N-(3-morpholin-4-ylmethyl-phenyl)-benzamide]
